According to patent US20230060873A1, “COMPOUNDS AND METHODS FOR FORMING ION CHANNELS IN BIOLOGICAL MEMBRANES” (Washington University, priority 2021, published 2023):
In brackets after ≈: the same amount, converted by molar mass.

What was measured:
B. subtilis membranes = assay: DiSC3(5) depolarization assay, MAcBCE/MAkBCE; format: cell-based, Bacillus subtilis; details: 2 μM compound, 60 mM KCl, NaCl or NMDG-Cl; for change in DiSC3(5) fluorescence (membrane depolarization): 25° C, 10 minutes
Protocol: A 2 mL liquid culture of transformed B. subtilis cells was grown at 37° C. in LB medium supplemented with 5 μg/mL kanamycin until OD600=0.6 was reached. The cells were collected by centrifugation at 2000 rpm over 3 min. The bacteria were washed twice with an NMDG-MeSO3 solution (100 mM NMDG, 10 mM HEPES, pH adjusted to 7.4 with methane sulfonic acid). […] The working dye solution was a 200 μM solution of DiSC3(5) (3,3′-dipropylthiadicarbocyanine iodide; Tokyo Chemical Industry) in DMSO. A series of 2 M solutions of NMDG-Cl, NaCl and KCl were prepared containing 10 mM HEPES; the pH was adjusted to pH 7.4 with NMDG, NaOH or KOH, respectively, to avoid any pH changes after their addition. The experiment was initiated with 3 mL of NMDG-MeSO3 in a quartz cuvette, then 5 μL of the dye solution was added (timepoint t1, 50 sec) for a 0.3 μM final concentration by the end of experiment. This was followed by the addition of 100 μL of the B. subtilis suspension (timepoint t2, 100 sec). After 150 sec (timepoint t3, 250 sec), the fluorescence stabilized to a minimum intensity and 100 μL of the 2 M NMDG-Cl, NaCl or KCl solution was added to reach ˜60 mM final concentration of the salt. The final step was the addition 0.64 μL of a 10 mM stock solution of the desired MAcBCE or MAkBCE compound in TFE (timepoint t4, 400 sec), for a final concentration of 2 μM. Negative controls were performed by adding the same volume of pure TFE to the cuvette at timepoint t4. Fluorescence intensity was recorded each second using a Horiba Fluoromax 4 spectrometer (λexcitation=640 nm; λemission=670 nm). The solution inside the cuvette was vigorously mixed throughout the experiment by using a magnetic stirrer and the temperature was kept constant at 25° C. For purposes of normalization, the fluorescence intensity was divided by the fluorescence level just before timepoint t2.
To determine whether MAcBCE or MAkBCE compounds catalyse ion-selective flux, a set of highly bioactive members bearing ten-carbon chain lengths were tested for their ability to depolarize B. subtilis membranes using a test based on the fluorescent dye 3,3-dipropylthiadicarbocyanine (DiSC3(5)). This set of compounds were selected as four of the most toxic members of the MAcBCE and MAkBCE compound library (5-O-10, 5-A-10, 6-O-10, and 6-A-10; FIG. 3) belong to this group and all are soluble in TFE. The two non-toxic benzo(12-crown-4) scaffold members (4-O-10 and 4-A-10; FIG. 3) were used as controls.
FIGS. 4 and 5 show the time course of DiSC3(5) fluorescence due to the addition of 2 μM 6-A-10 (FIG. 4) and 6-O-10 (FIG. 5). The average of the final fluorescence values (mean±S.E.M.) of at least three experiments are shown in FIGS. 4 and 5 and are similarly plotted for 4-A-10 (FIG. 6), 5-A-10 (FIG. 7), 6-A-10 (FIG. 8), 4-O-10 (FIG. 9), 5-O-10 (FIG. 10), and 6-O-10 (FIG. 11). Experiments were performed in a NMDG-MeSO3 solution (100 mM NMDG, 10 mM HEPES, pH adjusted to 7.4 with methane sulfonic acid). The events are: t1, addition of dye; t2, addition of B. subtilis; t3, addition of a 2 M NMDG-Cl, 2 M NaCl or a 2 M KCl solution up to a final concentration of 60 mM; t4, addition of each MAcBCE or MAkBCE compound up to 2 μM. Experiments were repeated at least four times per condition and normalized relative to the fluorescence intensity just before the addition of cells.
The potentiometric dye DiSC3(5) was used to measure the ability of MAcBCE and MAkBCE compounds to catalyse ion-selective transport. DiSC3(5) undergoes membrane voltage-dependent partitioning between the intracellular and the extracellular medium. DiSC3(5) accumulates within a cell with a polarized membrane (negatively charged inside the cell) and is released when the cell membrane is depolarized (positively charged inside the cell). The membrane voltage in B. subtilis is roughly −120 mV, leading to DiSC3(5) accumulation in the bacteria (timepoint t2 in FIG. 4A-B). […]

Bacillus subtilis = assay: Toxicity (MIC) of dialkylated lariat ethers on B. subtilis; format: cell-based; details: B. subtilis 168 WT, 12 h, visual turbidity, read-out: minimum inhibitory concentration (MIC)
Protocol: The cyto-toxicity was determined by measuring the minimum inhibitory concentrations (MIC) for this series of dialkylated lariat ethers in the Gram-negative bacteria Escherichia coli, the Gram-positive bacteria Bacillus subtilis, and human embryonic kidney (HEK293T) cells.
On bacteria. XL1 blue strain Escherichia coli cells transformed with a pET28a plasmid (which contains a kanamycin resistance gene) were grown at 37° C. in 2 mL of LB medium (Miller's LB broth, Research Products International) supplemented with 50 μg/mL of kanamycin until the optical density (600 nm) reached 0.600. The starting density of bacteria in the remainder of the experiments was a 1/100 dilution of this bacterial density, which was split into 4 mL cultures. A series of 400, 100, 10 and 5 mM stock solutions of each dialkylated diaza(18-crown-6) compounds in trifluoroethanol (TFE) were diluted by adding to the 4 mL cultures until final concentrations of 400, 200, 100, 50, 20, 15, 10, 5, 4, 3, 2 and 1 μM were reached, with the final TFE concentration never >0.1% v/v. Negative controls in the presence of TFE 0.1% v/v or the absence of any treatment were done for each batch. The cultures were incubated at 37° C. with agitation for 12 h. Bacillus subtilis (168 WT) toxicity tests were carried out using an identical protocol, except for the addition of the antibiotic. […] Each compound was assayed a minimum of three times at each tested concentration.

Compound	kinetics of the depolarization, ion dependence (B. subtilis membranes)	change in DiSC3(5) fluorescence (membrane depolarization) (B. subtilis membranes)	MIC (Bacillus subtilis) [µM]
CCCCCCCCCC(=O)c1ccc2c(c1)OCCOCCOCCOCCOCCO2 [Compound 6-O-10, 1-(2,3,5,6,8,9,11,12,14,15-decahydrobenzo[b][1,4,7,10,13,16]hexaoxacyclooctadecin-18-yl)decan-1-one]	fastest in presence of K^+ followed by Na^+ and then NMDG^+	clear increase in fluorescence	
CCCCCCCCCCN1CCOCCOCCN(CCCCCCCCCC)CCOCCOCC1 [LEC10, Didecyl diaza(18-crown-6)]			2 (≈ 1.09 µg/mL)
CCCCCCCCCCc1ccc2c(c1)OCCOCCOCCOCCOCCO2 [Compound 6-A-10, 18-decyl-2,3,5,6,8,9,11,12,14,15-decahydrobenzo[b][1,4,7,10,13,16]hexaoxacyclooctadecine]		clear increase in fluorescence	
